Data reported in ChEMBL document CHEMBL3046568, “Synthesis, antimicrobial and DNA cleavage studies of some 4-aryloxymethylcoumarins obtained by reaction of 4-bromomethylcoumarins with bidentate nucleophiles” (2012).
In brackets after ≈: the same amount, converted by molar mass. Activity calls are given as the source filed them. No cut-off for these calls is given here.

Experiments:
Aspergillus niger [1] = assay: Induction of Aspergillus niger DNA cleavage at 50 ug after 2 hr by agarose gel electrophoresis
Mucor fuscus = assay: Antifungal activity against Mucor fuscus after 3 to 4 days by serial dilution method; format: functional; conditions: for MIC: Mucor fuscus
Staphylococcus aureus [2] = assay: Induction of Staphylococcus aureus MTCC 3160 DNA cleavage at 50 ug after 2 hr by agarose gel electrophoresis
Aspergillus fumigatus = assay: Antifungal activity against Aspergillus fumigatus after 3 to 4 days by serial dilution method; format: functional; conditions: for MIC: Aspergillus fumigatus
Aspergillus niger [3] = assay: Antifungal activity against Aspergillus niger after 3 to 4 days by serial dilution method; format: functional; conditions: for MIC: Aspergillus niger
Pseudomonas aeruginosa = assay: Antibacterial activity against Pseudomonas aeruginosa MTCC 1034 after 24 hr by disk diffusion method; format: functional; conditions: for MIC: Pseudomonas aeruginosa, MTCC 1034, 24 h
Fusarium oxysporum = assay: Antifungal activity against Fusarium oxysporum after 3 to 4 days by serial dilution method; format: functional; conditions: for MIC: Fusarium oxysporum
Penicillium chrysogenum = assay: Antifungal activity against Penicillium chrysogenum after 3 to 4 days by serial dilution method; format: functional; conditions: for MIC: Penicillium chrysogenum
Staphylococcus aureus [4] = assay: Antibacterial activity against Staphylococcus aureus MTCC 3160 after 24 hr by disk diffusion method; format: functional; conditions: for MIC: Staphylococcus aureus, MTCC 3160, 24 h
Bacillus subtilis = assay: Antibacterial activity against Bacillus subtilis MTCC 297 after 24 hr by disk diffusion method; format: functional; conditions: for MIC: Bacillus subtilis, MTCC 297, 24 h
Klebsiella pneumoniae = assay: Antibacterial activity against Klebsiella pneumoniae MTCC 3384 after 24 hr by disk diffusion method; format: functional; conditions: for MIC: Klebsiella pneumoniae, MTCC 3384, 24 h
Escherichia coli [5] = assay: Antibacterial activity against Escherichia coli MTCC 1089 after 24 hr by disk diffusion method; format: functional; conditions: for MIC: Escherichia coli, MTCC 1089, 24 h
Escherichia coli [6] = assay: Induction of Escherichia coli MTCC 1089 DNA cleavage at 25 ug after 2 hr by agarose gel electrophoresis
Enterococcus faecalis = assay: Antibacterial activity against Enterococcus faecalis MTCC 3382 after 24 hr by disk diffusion method; format: functional; conditions: for MIC: Enterococcus faecalis, MTCC 3382, 24 h
Escherichia coli [7] = assay: Induction of Escherichia coli MTCC 1089 DNA cleavage at 50 ug after 2 hr by agarose gel electrophoresis
Candida albicans = assay: Antifungal activity against Candida albicans after 3 to 4 days by serial dilution method; format: functional; conditions: for MIC: Candida albicans
Aspergillus niger [8] = assay: Induction of Aspergillus niger DNA cleavage at 25 ug after 2 hr by agarose gel electrophoresis

SMILES | Activity (Aspergillus niger [1]) | inhibition zone (IZ) (Mucor fuscus) [mm] | MIC (Mucor fuscus) [µg/mL] | Activity (Staphylococcus aureus [2]) | inhibition zone (IZ) (Aspergillus fumigatus) [mm] | MIC (Aspergillus fumigatus) [µg/mL] | inhibition zone (IZ) (Aspergillus niger [3]) [mm] | MIC (Aspergillus niger [3]) [µg/mL] | inhibition zone (IZ) (Pseudomonas aeruginosa) [mm] | MIC (Pseudomonas aeruginosa) [µg/mL] | MIC (Fusarium oxysporum) [µg/mL] | inhibition zone (IZ) (Penicillium chrysogenum) [mm] | MIC (Penicillium chrysogenum) [µg/mL] | inhibition zone (IZ) (Staphylococcus aureus [4]) [mm] | MIC (Staphylococcus aureus [4]) [µg/mL] | inhibition zone (IZ) (Bacillus subtilis) [mm] | MIC (Bacillus subtilis) [µg/mL] | inhibition zone (IZ) (Klebsiella pneumoniae) [mm] | MIC (Klebsiella pneumoniae) [µg/mL] | MIC (Escherichia coli [5]) [µg/mL] | other results
COc1ccc2oc(=O)cc(COc3cccc(O)c3)c2c1 | Active | 19 | 6.25 (≈ 21 µM) | Active | 17 | 12.5 (≈ 41.9 µM) | 20 | 6.25 (≈ 21 µM) | 25 | 6.25 (≈ 21 µM) | 12.5 (≈ 41.9 µM) | 20 | 6.25 (≈ 21 µM) | 20 | 6.25 (≈ 21 µM) | 18 | 6.25 (≈ 21 µM) | 21 | 6.25 (≈ 21 µM) | 12.5 (≈ 41.9 µM) | inhibition zone (IZ) (Fusarium oxysporum): 16 mm; inhibition zone (IZ) (Escherichia coli [5]): 18 mm; Activity (Escherichia coli [6]): Active; inhibition zone (IZ) (Enterococcus faecalis): 21 mm; MIC (Enterococcus faecalis): 6.25 µg/mL (≈ 21 µM); Activity (Escherichia coli [7]): Active; inhibition zone (IZ) (Candida albicans): 19 mm; MIC (Candida albicans): 6.25 µg/mL (≈ 21 µM)
CCN(CC)c1cccc(OCc2cc(=O)oc3ccc(Cl)cc23)c1 | Active | 21 | 6.25 (≈ 17.5 µM) | Active | 22 | 6.25 (≈ 17.5 µM) | 22 | 6.25 (≈ 17.5 µM) | 25 | 6.25 (≈ 17.5 µM) | 12.5 (≈ 34.9 µM) | 23 | 6.25 (≈ 17.5 µM) | 21 | 6.25 (≈ 17.5 µM) | 20 | 6.25 (≈ 17.5 µM) | 19 | 6.25 (≈ 17.5 µM) | 12.5 (≈ 34.9 µM) | inhibition zone (IZ) (Fusarium oxysporum): 16 mm; Activity (Aspergillus niger [8]): Active; inhibition zone (IZ) (Escherichia coli [5]): 15 mm; inhibition zone (IZ) (Enterococcus faecalis): 22 mm; MIC (Enterococcus faecalis): 6.25 µg/mL (≈ 17.5 µM); Activity (Escherichia coli [7]): Active; inhibition zone (IZ) (Candida albicans): 18 mm; MIC (Candida albicans): 6.25 µg/mL (≈ 17.5 µM)
O=c1cc(COc2cccc(OCc3cc(=O)oc4ccc(Cl)cc34)c2)c2cc(Cl)ccc2o1 | Active | 22 | 6.25 (≈ 12.6 µM) | Active | 22 | 6.25 (≈ 12.6 µM) | 24 | 6.25 (≈ 12.6 µM) | 22 | 6.25 (≈ 12.6 µM) | 12.5 (≈ 25.2 µM) | 20 | 6.25 (≈ 12.6 µM) | 20 | 6.25 (≈ 12.6 µM) | 19 | 6.25 (≈ 12.6 µM) | 18 | 6.25 (≈ 12.6 µM) | 12.5 (≈ 25.2 µM) | inhibition zone (IZ) (Fusarium oxysporum): 16 mm; Activity (Aspergillus niger [8]): Active; inhibition zone (IZ) (Escherichia coli [5]): 15 mm; inhibition zone (IZ) (Enterococcus faecalis): 23 mm; MIC (Enterococcus faecalis): 6.25 µg/mL (≈ 12.6 µM); Activity (Escherichia coli [7]): Active; inhibition zone (IZ) (Candida albicans): 19 mm; MIC (Candida albicans): 6.25 µg/mL (≈ 12.6 µM)
CC(=O)Nc1cccc(OCc2cc(=O)oc3ccc(Cl)cc23)c1 | Active | 22 | 6.25 (≈ 18.2 µM) | Active | 22 | 6.25 (≈ 18.2 µM) | 22 | 6.25 (≈ 18.2 µM) | 23 | 6.25 (≈ 18.2 µM) | 12.5 (≈ 36.4 µM) | 23 | 6.25 (≈ 18.2 µM) | 21 | 6.25 (≈ 18.2 µM) | 20 | 6.25 (≈ 18.2 µM) | 19 | 6.25 (≈ 18.2 µM) | 12.5 (≈ 36.4 µM) | inhibition zone (IZ) (Fusarium oxysporum): 16 mm; Activity (Aspergillus niger [8]): Active; inhibition zone (IZ) (Escherichia coli [5]): 16 mm; inhibition zone (IZ) (Enterococcus faecalis): 23 mm; MIC (Enterococcus faecalis): 6.25 µg/mL (≈ 18.2 µM); Activity (Escherichia coli [7]): Active; inhibition zone (IZ) (Candida albicans): 20 mm; MIC (Candida albicans): 6.25 µg/mL (≈ 18.2 µM)
Cc1ccc2c(COc3cccc(OCc4cc(=O)oc5cc(C)ccc45)c3)cc(=O)oc2c1 | inactive | 15 | 25 (≈ 55 µM) | inactive | 17 | 12.5 (≈ 27.5 µM) | 16 | 12.5 (≈ 27.5 µM) | 14 | 25 (≈ 55 µM) | > 100 | 15 | 25 (≈ 55 µM) | 12 | 25 (≈ 55 µM) | 14 | 12.5 (≈ 27.5 µM) | 13 | 12.5 (≈ 27.5 µM) | > 100 | inhibition zone (IZ) (Enterococcus faecalis): 16 mm; MIC (Enterococcus faecalis): 12.5 µg/mL (≈ 27.5 µM); Activity (Escherichia coli [7]): inactive; inhibition zone (IZ) (Candida albicans): 8 mm; MIC (Candida albicans): 25 µg/mL (≈ 55 µM)
CC(=O)Nc1cccc(OCc2cc(=O)oc3ccc(C)cc23)c1 | inactive | 15 | 25 (≈ 77.3 µM) | inactive | 17 | 12.5 (≈ 38.7 µM) | 20 | 6.25 (≈ 19.3 µM) | 16 | 12.5 (≈ 38.7 µM) | 50 (≈ 155 µM) | 19 | 6.25 (≈ 19.3 µM) | 14 | 12.5 (≈ 38.7 µM) | 15 | 12.5 (≈ 38.7 µM) | 12 | 12.5 (≈ 38.7 µM) | 25 (≈ 77.3 µM) | inhibition zone (IZ) (Fusarium oxysporum): 10 mm; inhibition zone (IZ) (Escherichia coli [5]): 11 mm; inhibition zone (IZ) (Enterococcus faecalis): 12 mm; MIC (Enterococcus faecalis): 25 µg/mL (≈ 77.3 µM); Activity (Escherichia coli [7]): inactive; inhibition zone (IZ) (Candida albicans): 9 mm; MIC (Candida albicans): 25 µg/mL (≈ 77.3 µM)
CC(=O)Nc1cccc(OCc2cc(=O)oc3c2ccc2ccccc23)c1 | inactive | 16 | 12.5 (≈ 34.8 µM) | inactive | 17 | 12.5 (≈ 34.8 µM) | 19 | 6.25 (≈ 17.4 µM) | 19 | 6.25 (≈ 17.4 µM) | 50 (≈ 139 µM) | 18 | 12.5 (≈ 34.8 µM) | 12 | 25 (≈ 69.6 µM) | 13 | 12.5 (≈ 34.8 µM) | 15 | 12.5 (≈ 34.8 µM) | 25 (≈ 69.6 µM) | inhibition zone (IZ) (Fusarium oxysporum): 11 mm; inhibition zone (IZ) (Escherichia coli [5]): 13 mm; inhibition zone (IZ) (Enterococcus faecalis): 12 mm; MIC (Enterococcus faecalis): 25 µg/mL (≈ 69.6 µM); Activity (Escherichia coli [7]): inactive; inhibition zone (IZ) (Candida albicans): 16 mm; MIC (Candida albicans): 12.5 µg/mL (≈ 34.8 µM)
